Results reported in the NIST ThermoML archive (doi:10.1021/je400463n).

Assay: mn = molality of the nth substance listed, in mol/kg
Conditions: 100 kPa, Liquid, Pycnometric method

CCCCCCCCCCCC[N+](C)(C)C.[Br-] [dodecyltrimethylammonium bromide] + O
mass density [kg/m3]
Conditions | 293.15 K | 298.15 K | 303.15 K | 308.15 K | 313.15 K | 318.15 K
m1 = 0.00608 | 998.345 | 997.176 | 995.77 | 994.144 | 992.319 | 990.306
m1 = 0.00707 | 998.368 | 997.197 | 995.79 | 994.162 | 992.336 | 990.321
m1 = 0.00796 | 998.388 | 997.216 | 995.807 | 994.178 | 992.35 | 990.334
m1 = 0.00897 | 998.411 | 997.237 | 995.827 | 994.196 | 992.367 | 990.349
m1 = 0.00999 | 998.434 | 997.259 | 995.847 | 994.214 | 992.383 | 990.364
m1 = 0.01096 | 998.456 | 997.28 | 995.866 | 994.232 | 992.399 | 990.379
m1 = 0.01199 | 998.48 | 997.302 | 995.886 | 994.25 | 992.416 | 990.394
m1 = 0.01299 | 998.503 | 997.324 | 995.905 | 994.268 | 992.432 | 990.409
m1 = 0.01398 | 998.524 | 997.343 | 995.923 | 994.286 | 992.448 | 990.424
m1 = 0.01503 | 998.543 | 997.363 | 995.942 | 994.304 | 992.466 | 990.44
m1 = 0.01596 | 998.556 | 997.376 | 995.956 | 994.32 | 992.48 | 990.454
m1 = 0.01802 | 998.592 | 997.408 | 995.986 | 994.345 | 992.506 | 990.48
m1 = 0.02001 | 998.622 | 997.435 | 996.013 | 994.37 | 992.532 | 990.503
m1 = 0.02494 | 998.695 | 997.505 | 996.077 | 994.432 | 992.587 | 990.558
m1 = 0.02994 | 998.775 | 997.58 | 996.147 | 994.498 | 992.647 | 990.616
m1 = 0.03501 | 998.85 | 997.647 | 996.212 | 994.557 | 992.706 | 990.671
m1 = 0.03995 | 998.918 | 997.712 | 996.271 | 994.615 | 992.76 | 990.721
m1 = 0.04505 | 998.991 | 997.78 | 996.336 | 994.675 | 992.817 | 990.774
m1 = 0.04973 | 999.061 | 997.845 | 996.396 | 994.733 | 992.871 | 990.824
m1 = 0.05498 | 999.145 | 997.923 | 996.47 | 994.801 | 992.935 | 990.883
m1 = 0.06001 | 999.217 | 997.992 | 996.535 | 994.86 | 992.993 | 990.938

CCCCCCCCCCCC[N+](C)(C)CCO.[Br-] [dodecyl(2-hydroxyethyl)dimethylammonium bromide] + O
mass density [kg/m3]
Conditions | 293.15 K | 298.15 K | 303.15 K | 308.15 K | 313.15 K | 318.15 K
m1 = 0.00798 | 998.5 | 997.328 | 995.92 | 994.291 | 992.462 | 990.446
m1 = 0.009 | 998.537 | 997.364 | 995.954 | 994.324 | 992.494 | 990.476
m1 = 0.01003 | 998.574 | 997.4 | 995.989 | 994.356 | 992.525 | 990.506
m1 = 0.01099 | 998.61 | 997.434 | 996.02 | 994.387 | 992.554 | 990.534
m1 = 0.01195 | 998.646 | 997.468 | 996.053 | 994.418 | 992.584 | 990.562
m1 = 0.013 | 998.684 | 997.503 | 996.087 | 994.451 | 992.616 | 990.593
m1 = 0.01395 | 998.716 | 997.536 | 996.117 | 994.481 | 992.644 | 990.621
m1 = 0.01498 | 998.747 | 997.566 | 996.147 | 994.511 | 992.676 | 990.65
m1 = 0.01595 | 998.774 | 997.591 | 996.174 | 994.537 | 992.701 | 990.679
m1 = 0.01793 | 998.831 | 997.647 | 996.226 | 994.588 | 992.75 | 990.727
m1 = 0.01991 | 998.886 | 997.7 | 996.278 | 994.637 | 992.8 | 990.776
m1 = 0.02489 | 999.025 | 997.835 | 996.408 | 994.766 | 992.92 | 990.893
m1 = 0.02994 | 999.159 | 997.963 | 996.535 | 994.888 | 993.043 | 991.013
m1 = 0.03493 | 999.299 | 998.101 | 996.667 | 995.018 | 993.17 | 991.136
m1 = 0.0399 | 999.439 | 998.235 | 996.795 | 995.142 | 993.291 | 991.254
m1 = 0.04493 | 999.582 | 998.372 | 996.93 | 995.274 | 993.419 | 991.378
m1 = 0.04982 | 999.714 | 998.5 | 997.055 | 995.395 | 993.537 | 991.49
m1 = 0.05488 | 999.856 | 998.637 | 997.186 | 995.52 | 993.66 | 991.613

CCCCCCCCCCCC[N+](C)(CCO)CCO.[Br-] [N,N-bis(2-hydroxyethyl)-N-methyldodecan-1-aminium bromide] + O
mass density [kg/m3]
Conditions | 293.15 K | 298.15 K | 303.15 K | 308.15 K | 313.15 K | 318.15 K
m1 = 0.00497 | 998.465 | 997.294 | 995.89 | 994.266 | 992.443 | 990.43
m1 = 0.00607 | 998.521 | 997.349 | 995.942 | 994.317 | 992.492 | 990.478
m1 = 0.00698 | 998.568 | 997.394 | 995.986 | 994.359 | 992.533 | 990.518
m1 = 0.00805 | 998.622 | 997.446 | 996.036 | 994.408 | 992.58 | 990.564
m1 = 0.00909 | 998.675 | 997.498 | 996.086 | 994.456 | 992.626 | 990.609
m1 = 0.01002 | 998.722 | 997.544 | 996.13 | 994.499 | 992.667 | 990.649
m1 = 0.01109 | 998.774 | 997.597 | 996.18 | 994.548 | 992.714 | 990.695
m1 = 0.01202 | 998.818 | 997.641 | 996.222 | 994.59 | 992.755 | 990.735
m1 = 0.01306 | 998.867 | 997.686 | 996.268 | 994.637 | 992.801 | 990.78
m1 = 0.01414 | 998.915 | 997.734 | 996.315 | 994.681 | 992.847 | 990.825
m1 = 0.01505 | 998.953 | 997.771 | 996.353 | 994.719 | 992.884 | 990.862
m1 = 0.01609 | 998.993 | 997.811 | 996.394 | 994.756 | 992.923 | 990.9
m1 = 0.01815 | 999.08 | 997.897 | 996.476 | 994.837 | 993.001 | 990.98
m1 = 0.02008 | 999.16 | 997.976 | 996.554 | 994.913 | 993.076 | 991.051
m1 = 0.02518 | 999.367 | 998.178 | 996.752 | 995.11 | 993.267 | 991.242
m1 = 0.03023 | 999.571 | 998.38 | 996.95 | 995.305 | 993.46 | 991.431
m1 = 0.03525 | 999.778 | 998.58 | 997.146 | 995.497 | 993.649 | 991.62
m1 = 0.04028 | 999.983 | 998.782 | 997.344 | 995.692 | 993.84 | 991.807
m1 = 0.04512 | 1000.19 | 998.981 | 997.539 | 995.884 | 994.027 | 991.991
m1 = 0.05025 | 1000.4 | 999.187 | 997.74 | 996.082 | 994.223 | 992.184
